In patent US10058540B2, “2-amino-5,5-difluoro-6-(fluoromethyl)-6-phenyl-3,4,5,6-tetrahydropyridines as BACE1 inhibitors” (H. Lundbeck A/S, priority 2014, dated 2018) one finds Kp, concentration and efflux ratio data, which are given here for one molecule.

Data set [1] is described as follows: Bioanalysis of brain and plasma samples (exposure, UPLC-MS/MS). The format is in vivo, rat. The following applies: male, Sprague Dawley, po, 3 hours post dose; for Kp at 3 h: brain/plasma, rat, read-out: Brain/Plasma ratio; for concentration at 3 h: read-out: Exp. Here is the method:
Young adult Male Sprague Dawley rats of approximately 250 g weight were purchased from Charles River and received 0-30 mg/kg of vehicle (10% HP betaCD+1M MeSO4, pH 2.5) or test compounds (dissolved in vehicle) only by oral gavage (p.o). The compounds are dosed at a volume of […]. Cohorts of 5-10 animals were established for each treatment condition.
At T=180 minutes after initial dosing the animals were stunned and decapitated with a guillotine. Trunk-blood was sampled in EDTA coated tubes after decapitation of the animal. The blood was centrifuged at 2200 G at 4° C. for 15 minutes and the plasma was collected and frozen at −80° C. The blood was aliquoted for Aβ ELISA and DMPK analysis. Immediately following sacrifice, the brain was extracted and split into 2 halves. The right hemibrains were snap frozen on dry ice and stored at −80° C. The left half was dissected; with the front forebrain taken for Aβ ELISA and the remainder used for DMPK analysis. These samples were also snap frozen on dry ice and stored at −80° C. until use for analysis.
TC was determined in plasma and brain homogenate using UltraPerformance LC® (UPLC®) chromatography followed by tandem-MS (MS/MS) detection.
Brain homogenate was prepared by homogenizing the brain 1:4 (v/v) with water:2-propanol:DMSO (50:30:20 v/v/v) followed by centrifugation and collection of the supernatant. Calibration standards and QC samples were prepared using a Hamilton robot. 150 μL of ISTD in acetonitrile (1 ng/mL ISTD) was added to 25 μL of calibration standards, QC samples and test samples (plasma and brain homogenate) using a Biomek robot. After centrifugation (6200 g, 4° C., 20 min) 100 μL supernatant from each sample was transferred to a new plate and mixed with 100 μL water with 0.1% formic acid using a Biomek robot (method file InVivo transfer). After a quick centrifugation (6200 g, 4° C., 5 min) the samples were placed in the auto-sampler.
MS/MS detection was done with an Applied Biosystems Sciex API 4000 instrument in positive-ion electrospray ionisation mode. TC and ISTD were detected at a parent>daughter mass to charge ratio (m/z). Nitrogen was used for the nebulizer and collision gases. The peak area correlated linearly with the plasma and brain concentration of the analytes in the range of 1.00-1000 ng/mL plasma and 5.00-5000 ng/g brain (corrected for dilution). If the plasma/brain sample drug concentration was above 1000 ng/mL or 5000 ng/g, the sample was diluted appropriately in blank plasma/blank brain homogenate before analysis.
• Waters Acquity UPLC HSS C18 SB (pH 2-8) 1.8 μm, 2.1×30 mm. • Mobile phase A: 0.1% aq. formic acid or 0.1% aq. ammonium hydroxide • Mobile phase B: Acetonitrile with 0.1% aq. formic acid or 0.1% aq. ammonium hydroxide. • Weak wash: Methanol • Strong wash: Acetonitrile/Isopropanol/formic acid (50/50/2 v/v/v) • Flow: 0.6 mL/min • Run time: 3 min. • To waste: 0-0.5 min • Temperature: 40° C. Gradient: […]
Compounds 11 and 15 were administered at doses of 10 mg/kg p.o. and brain and plasma samples were collected at 3 hours post dose and the following exposures were measured as described above.

A further data set concerns P-gp (MDR1). Description: MDCK-MDR1 assay (permeability / Pgp efflux). The format is in vitro ADME. Particulars: dog, Papp BA/Papp AB, Pgp substrate when ≥2. As for the experimental part:
The permeability of the test compounds was assessed in MDCK-MDR1 cells that were cultured to confluency (4-6 days) in a 96 transwell plate. Test compounds were diluted with the transport buffer (HBSS+1% BSA) to a concentration of 0.5 μM and applied to the apical or basolateral side of the cell monolayer. Permeation of the test compounds from A to B direction or B to A direction was determined in triplicate over a 60-minute incubation time at 37° C. and 5% CO2 with a relative humidity of 95%. Test compounds were quantified by LC-MS/MS analysis based on the peaks area ratios of analyte/IS in both the receiver and donor wells of the transwell plate.
The apparent permeability coefficient Papp (cm/s) was calculated using the equation: Papp=(dCr/dt)×Vr/(A×C0) Where dCr/dt is the cumulative concentration of compound in the receiver chamber as a function of time (μM/s); Vr is the solution volume in the receiver chamber (0.05 mL on the apical side; 0.25 mL on the basolateral side); A is the surface area for the transport, i.e. 0.0804 cm^2 for the area of the monolayer; C0 is the initial concentration in the donor chamber (μM).
Compounds are classified Pgp substrates when efflux ratio (Papp BA/Papp AB) is ≥2.

Structures are written as SMILES. Where two headings read alike, the source gives them in different places.

As usually defined, the efflux ratio is the permeability from basolateral to apical divided by that in the opposite direction, in the common usage.

For `COc1cnc(C(=O)Nc2cc(F)c(F)c([C@@]3(CF)N=C(N)CCC3(F)F)c2)cn1` [Compound 11, (S)-N-(3-(6-amino-3,3-difluoro-2-(fluoromethyl)-2,3,4,5-tetrahydropyridin-2-yl)-4,5-difluorophenyl)-5-methoxypyrazine-2-carboxamide], the Kp at 3 h was 1.8 in data set [1] (10 mg/kg p.o.) and 1.3 in data set [1] (30 mg/kg p.o.). Moreover, the concentration at 3 h is 1760 ng/g in data set [1] (rat brain, 10 mg/kg p.o.); 4210 ng/g in data set [1] (rat brain, 30 mg/kg p.o.); 1120 ng/g in data set [1] (rat plasma, 10 mg/kg p.o.); 3290 ng/g in data set [1] (rat plasma, 30 mg/kg p.o.). In addition, in the data set on P-gp (MDR1), the efflux ratio at 60 min, 0.5 μM came out at 0.77.
